Measured values from patent US7241803B2, “Compounds for inhibition of HIV infection by blocking HIV entry” (New York Blood Center, priority 2002, dated 2007).
Converted amounts (≈) assume the structure as drawn.

Key:
gp120-CD4 binding = target: T1, gp120-CD4 binding (Human immunodeficiency virus type 1 group M subtype B, UniProt P03375); parameters: species or system HIV-1; conditions: 10 μg/ml
T1 construct: purchased Immunodiagnostics, Woburn, Mass; (gp120); Genentech Inc., South San Francisco, Calif; (sCD4)
Description: Inhibition of gp120 binding to CD4. Wells of polystyrene plates was coated with 100 μl of sheep anti-gp120 antibody D7324 (Cliniqa, Fallbrook, Calif.) at 2 μg/ml in carbonate buffer (pH 9.6) at 4° C. overnight and blocked with 1% dry fat-free milk in PBS at 37° C. for 1 h. One hundred microliters of recombinant gp120 molecule (Immunodiagnostics, Woburn, Mass.) at 0.5 μg/ml in PBS was added and incubated at 37° C. for 1 h, followed by three washes with PBS-T. Soluble CD4 (sCD4) at 0.25 μg/ml was added in the presence of a compound (25 μM) and incubated at 37° C. for 1 h. After three washes, rabbit anti-sCD4 IgG (0.25 μg/ml in PBS, 100 μl/well) was added and incubated at 37° C. for 1 h. Binding of rabbit anti-sCD4 IgG was determined by sequential addition of biotinylated goat-anti-rabbit IgG, SA-HRP, and TMB. After the reactions were terminated, absorbance at 450 nm was recorded in an ELISA reader (Tecan).
HIV-1 envelope glycoprotein gp120 was captured by the anti-gp120 antibody coated onto wells of polystyrene plates. […] After extensive washes, CD4 molecule bound to gp120 was quantitated by ELISA using anti-CD4 antibody.

[1] = system: HIV-1 AZT-R (clade B, X4); conditions: Laboratory-adapted AZT-R (clade B, X4)
Description: Assessment of anti-HIV-1 infectivity. The inhibitory activity of compounds on infection by laboratory-adapted HIV-1 strains was determined as previously described (18). In brief, 1×10^4 MT-2 cells were infected with HIV-1 at 100 TCID50 (50% tissue culture infective dose) in 200 μl of RPMI 1640 medium containing 10% FBS in the presence or absence of compounds at graded concentrations overnight. For the time-of-addition assay, compounds were added at various time post-infection. Then the culture supernatants were removed and fresh media were added. On the fourth day post-infection, 100 μl of culture supernatants were collected from each well, mixed with equal volumes of 5% Triton X-100 and assayed for p24 antigen, which was quantitated by ELISA (51). Briefly, the wells of polystyrene plates (Immulon 1B, Dynex Technology, Chantilly, Va.) were coated with HIV immunoglobulin (HIVIG), which was prepared from plasma of HIV-seropositive donors with high neutralizing titers against HIV-1IIIB as previously described (44) in 0.085 M carbonate-bicarbonate buffer (pH 9.6) at 4° C. overnight, followed by washes with PBS-T buffer (0.01M PBS containing 0.05% Tween-20) and blocking with PBS containing 1% dry fat-free milk (Bio-Rad Inc., Hercules, Calif.). Virus lysates were added to the wells and incubated at 37° C. for 1 h. […] Absorbance at 450 nm was recorded in an ELISA reader (Ultra 384, Tecan). […]

[2] = system: HIV-1 93TH051 (clade E, X4R5); conditions: Primary 93TH051 (clade E, X4R5), PBMCs
Description: (§1) Inhibitory activity of compounds on infection by primary HIV-1 isolates was determined as previously described (41). PBMCs were isolated from the blood of healthy donors at the New York Blood Center by standard density gradient centrifugation using Histopaque-1077 (Sigma). The cells were plated in 75 cm^2 plastic flasks and incubated at 37° C. for 2 hrs. The nonadherent cells were collected and resuspended at 5×10^6 in 10 ml RPMI-1640 medium containing 10% FBS, 5 μg/ml PHA and 100 U/ml IL-2 (Sigma), followed by incubation at 37° C. for 3 days. The PHA-stimulated cells were infected with corresponding primary HIV-1 isolates at 0.01 multiplicity of infection (MOI) in the absence or presence of a compound at graded concentrations. Culture media were changed every 3 days. The supernatants were collected 7 days post-infection and tested for p24 antigen by ELISA as described above. The percent inhibition of p24 production and IC50 values were calculated as described above.

[3] = system: HIV-1 RU570 (clade G, R5); conditions: Primary RU570 (clade G, R5), PBMCs
Description: as §1

[4] = system: HIV-1 93BR020 (clade F, X4R5); conditions: Primary 93BR020 (clade F, X4R5), PBMCs
Description: as §1

[5] = system: MT-2 & H9/HIV-1IIIB (clade B, X4); test: cell-cell fusion, dye transfer assay; format: cell-based; conditions: MT-2 & H9/HIV-1IIIB (clade B, X4)
Description: Inhibition of cell-cell fusion. A dye transfer assay was used for detection of HIV-1 mediated cell fusion as previously described (21, 24, 34). H9/HIV-1IIIB cells were labeled with a fluorescent reagent, Calcein-AM (Molecular Probes, Inc., Eugene, Oreg.) and then incubated with MT-2 cells (ratio=1:5) in 96-well plates at 37° C. for 2 hrs in the presence or absence of compounds tested. The fused and unfused Cacein-labeled HIV-1-infected cells were counted under an inverted fluorescence microscope (Zeiss, Germany) with an eyepiece micrometer disc. The percentage of inhibition of cell fusion and the IC50 values were calculated as previously described (21).

HIV-1IIIB = test: inhibition of HIV-1IIIB replication (p24 production) in MT-2 cells; format: cell-based; conditions: for IC50: HIV-1IIIB replication, MT-2 cells; for inhibitory activity on HIV-1IIIB replication: concentration up to 80 μg/ml
Description: (§2) Assessment of anti-HIV-1 infectivity. […] Reactions were terminated by addition of 1N H2SO4.

HIV-1 SF2 (clade B, X4) = test: infection by laboratory-adapted HIV-1 strain, p24 production; format: cell-based
Description: as §2

| Compound | inhibition of gp120-CD4 binding (gp120-CD4 binding) | IC50 (μg/ml) for inhibition of p24 production [1] [µg/mL] | IC50 (μg/ml) for inhibition of p24 production [2] [µg/mL] | IC50 (μg/ml) for inhibition of p24 production [3] [µg/mL] | IC50 (μg/ml) for inhibition of p24 production [4] [µg/mL] | IC50 (μg/ml) for inhibition of cell-cell fusion [5] [µg/mL] | IC50 (HIV-1IIIB) [µg/mL] | inhibitory activity on HIV-1IIIB replication (HIV-1IIIB) | IC50 (μg/ml) for inhibition of p24 production (HIV-1 SF2 (clade B, X4)) [µg/mL] |
| --- | --- | --- | --- | --- | --- | --- | --- | --- | --- |
| Cc1ccc(C)n1-c1ccc(C(=O)O)c(O)c1 [NB-2] | did not significantly inhibited | 1.41 ± 0.03 | 1.15 ± 0.14 | 23.12 ± 1.23 | 2.50 ± 0.01 | 1.53 ± 0.17 | 0.24 ± 0.05 (≈ 1.04 µM) | significantly inhibited | 0.44 ± 0.03 |
| O=C(O)c1cc(-n2cccc2)ccc1Cl [NB-64] | did not significantly inhibited | 6.25 ± 0.25 | 5.24 ± 1.80 | 8.81 ± 0.24 | 1.05 ± 0.18 | 2.02 ± 0.19 | 0.49 ± 0.09 (≈ 2.21 µM) | significantly inhibited | 1.34 ± 0.06 |
